From patent publication US5466440A, “Formulations of oral gastrointestinal diagnostic X-ray contrast agents in combination with pharmaceutically acceptable clays” (Eastman Kodak Company, priority 1994, dated 1995)
≈ marks a conversion by molar mass, not a printed value.

Tests used:
[1] = X-ray diagnostic imaging of the GI tract; type: in vivo, rats; conditions: for Imaging efficacy, stabilized with Pluronic F88: milled with F88
Experimental: X-ray diagnostic imaging was performed in anesthetized rats with the exception of G05-R1 samples which were imaged in fasted and anesthetized ferrets. Images were obtained using the Siemens C-Arm Siremobil 3U x-ray unit. The imaging dose was 10 ml/kg administered via gastric intubation to the anesthetized animal. X-rays were taken at 15, 30, 45 and 60 minutes and at 1, 2, 5 and 24 hours post-dose. […]
Images were evaluated by the criteria of: coating, homogeneity, rate of gastric emptying and the total transit time. These are considered to be a measure of the stability of the nanosuspension during transit down the GI tract and the ability of the formulation to image the lower gastrointestinal tract. Nanosuspensions were rated excellent when there was a uniform coating with transradiation of long intestinal segments, sufficient radiodensity to delineate anatomical structure, rapid emptying and transit, and stability and homogeneity during GI transit. A plus sign (+) was assigned when imaging in the lower GI was exceptional, a minus sign (-) as given when it was not. […] All other nanosuspensions were compared with this formulation.

Aqueous solubility = type: physicochemical; conditions: water, Table 3
[2] = X-ray diagnostic imaging of the GI tract; type: in vivo; conditions: ferrets; milled in Pluronic F127
Experimental: X-ray diagnostic imaging was performed in anesthetized rats with the exception of G05-R1 samples which were imaged in fasted and anesthetized ferrets. Images were obtained using the Siemens C-Arm Siremobil 3U x-ray unit. The imaging dose was 10 ml/kg administered via gastric intubation to the anesthetized animal. X-rays were taken at 15, 30, 45 and 60 minutes and at 1, 2, 5 and 24 hours post-dose. A 10-15 ml volume of air was introduced to the animal at 30 minutes to produce a double contrast image.
Images were evaluated by the criteria of: coating, homogeneity, rate of gastric emptying and the total transit time. These are considered to be a measure of the stability of the nanosuspension during transit down the GI tract and the ability of the formulation to image the lower gastrointestinal tract. Nanosuspensions were rated excellent when there was a uniform coating with transradiation of long intestinal segments, sufficient radiodensity to delineate anatomical structure, rapid emptying and transit, and stability and homogeneity during GI transit. A plus sign (+) was assigned when imaging in the lower GI was exceptional, a minus sign (-) as given when it was not. The nanosuspension of WIN 8883 milled in Pluronic F127, was considered to be excellent for both upper and lower GI imaging in both rats and ferrets. All other nanosuspensions were compared with this formulation.

CCCCC(CC)COC(=O)CC(C(=O)OCC(CC)CCCC)S(=O)(=O)O (stereo not shown) [DOSS, dioctylsulfosuccinate]
Stabilizing effect on imaging efficacy ([1]; stabilizer for WIN 8883 nanosuspension): fair

CCOC(=O)c1c(I)c(NC(C)=O)c(I)c(NC(C)=O)c1I [WIN 8883, Ethyl 3,5-bis(acetylamino)-2,4,6-triiodobenzoate]
solubility (Aqueous solubility): < 5 µg/mL
Upper and lower GI imaging [2]: excellent
Imaging efficacy, overall [1]: excellent
Imaging efficacy, stabilized with Pluronic F88 [1]: excellent imaging, and then only in the upper GI
Upper and lower GI imaging ([1]; rats, milled in Pluronic F127): excellent

CCOC(=O)c1c(I)c(NC(C)=O)c(I)c(C(=O)OCC)c1I [WIN 59316, Diethyl 5-acetylamino-2,4,6-triiodo-isophthalate]
solubility (Aqueous solubility): 1 µg/mL (≈ 1.52 µM)
Imaging efficacy, overall [1]: fair
Lower GI imaging [1]: imaging well in the lower GI tract

CCOC(=O)CCCCCOC(=O)c1c(I)c(NC(C)=O)c(I)c(NC(C)=O)c1I [WIN 67722, 6-Ethoxy-6-oxohexyl 3,5-bis(acetylamino)-2,4,6-triiodobenzoate]
solubility (Aqueous solubility): 2 µg/mL (≈ 2.65 µM)
Lower GI imaging [1]: poor
Upper GI imaging [1]: good

COc1ccc(COC(=O)c2c(I)c(NC(C)=O)c(I)c(NC(C)=O)c2I)cc1 [WIN 67754, 3,5-Bis-acetylamino-2,4,6-triiodo-benzoic acid 4-methoxy-benzyl ester]
solubility (Aqueous solubility): 15 µg/mL (≈ 20.4 µM)
Imaging efficacy, overall [1]: good
Lower GI imaging [1]: exceptional

CC(=O)Nc1c(I)c(NC(C)=O)c(I)c(C(=O)OCc2ccc(C(=O)OC(C)C)cc2)c1I [WIN 67956, 3,5-Bis-acetylamino-2,4,6-triiodo-benzoic acid 4-isopropyl benzoate ester]
solubility (Aqueous solubility): 1 µg/mL (≈ 1.27 µM)
Gastric emptying [1]: very rapid gastric emptying
Imaging efficacy, overall [1]: good
Coating ([1]; repeated with air given at 15 minutes to induce double contrast): No improvement in coating

CCOC(=O)C(C)(OC(=O)c1c(I)c(NC(C)=O)c(I)c(NC(C)=O)c1I)C(=O)OCC [WIN 67975]
solubility (Aqueous solubility): 8 µg/mL (≈ 10.2 µM)
Imaging efficacy, overall [1]: fair

CC(=O)Nc1c(I)c(NC(C)=O)c(I)c(C(=O)OCCCCCC(=O)OC(C)C)c1I [WIN 67995, 3,5,-Bis-acetylamino-2,4,6-triiodo-benzoic acid 5-isopropoxycarbonyl-pentylester]
solubility (Aqueous solubility): 1 µg/mL (≈ 1.3 µM)
Lower GI imaging [1]: poor
Upper GI imaging [1]: good

CC(=O)Nc1c(I)c(NC(C)=O)c(I)c(C(=O)OC(C(=O)OC(C)C)C(=O)OC(C)C)c1I [WIN 68165, Propanedioic Acid, [[3,5-bis-(acetylamino)-2,4,6-triiodo-benzoyl]oxy]-bis(1-methylethyl)ester]
solubility (Aqueous solubility): 1 µg/mL (≈ 1.25 µM)
Imaging efficacy, overall [1]: fair

CCOC(=O)C(CC)OC(=O)c1c(I)c(NC(C)=O)c(I)c(C(=O)OC(CC)C(=O)OCC)c1I (stereo not shown) [WIN 68183, Bis-[1-(ethoxycarbonyl)propyl]-2,4,6-triiodo-5-acetylamino-isophthalate]
solubility (Aqueous solubility): < 1 µg/mL
Imaging efficacy, overall [1]: excellent
Lower GI imaging [1]: not as definitive as with WIN 8883
Imaging efficacy, stabilized with Pluronic F88 [1]: loss of efficacy

CCc1c(I)c(CC)c(I)c(CC)c1I [WIN 68756, 1,3,5-Triethyl-2,4,6-triiodobenzene]
solubility (Aqueous solubility): < 1 µg/mL
Imaging efficacy, overall [1]: excellent
Lower GI imaging [1]: not as definitive as with WIN 8883
Imaging efficacy, stabilized with Pluronic F88 [1]: loss of efficacy
